Assay results reported in patent publication US7691444B2, “Preservatives for wood-based products” (LANXESS Deutschland GmbH, priority 2002, dated 2010).
Like-named read-outs stand apart in the source and are kept apart here.

Key:
[1] = cited from earlier work
Tyromyces palustris = experiment: Standard rot trial (Japan Wood Preservers Association Standard Test procedure) on glueline-treated plywood; format: cell-based; details: phenol formaldehyde glue
[2] = Stability under the conditions of the glue-line treatment; format: physicochemical
decay causing fungi = experiment: Efficacy in the glue-line under alkaline conditions (PF type glues); details: alkaline conditions such as PF type glues
[3] = use rate 100 gram a.i./m^3 in the glueline of plywood from pinus spp
[4] = use rate 200 gram a.i./m^3 in the glueline of plywood from pinus spp
[5] = use rate 400 gram a.i./m^3 in the glueline of plywood from pinus spp
[6] = use rate 800 gram a.i./m^3 in the glueline of plywood from pinus spp

Question: Which “Use rate range (agricultural uses)” value [1] does the source give for `CC(C)(C)C(=O)C(Oc1ccc(Cl)cc1)n1cncn1` (racemic) [triadimefon, (±)1-(4-chlorophenoxy)-3,3-dimethyl-1-(1H-1,2,4-triazol-1-yl)butan-2-one] here?
Answer: 125–500 g/ha

Question: What about the “Efficacy against target organism (expressed as weight loss percent in a standard rot trial)” value (Tyromyces palustris; [3]) of the same compound?
Answer: 3.7%

Question: And the “Efficacy against target organism (expressed as weight loss percent in a standard rot trial)” value (Tyromyces palustris; [4])?
Answer: 0.5%

Question: What about the “Efficacy against target organism (expressed as weight loss percent in a standard rot trial)” value (Tyromyces palustris; [5]) of the same compound?
Answer: 0.9%

Question: And the “Efficacy against target organism (expressed as weight loss percent in a standard rot trial)” value (Tyromyces palustris; [6])?
Answer: 1.4%

Question: What about the “Stability under the conditions of the glue-line treatment” value ([2]; glue-line treatment) of the same compound?
Answer: stable

Question: What does the source list for `CC(C)(C)C(O)C(Oc1ccc(Cl)cc1)n1cncn1` (racemic) [triadimenol, (±) 1-(4-chlorophenoxy)-3,3-dimethyl-1-(1H-1,2,4-triazol-1-yl)butan-2-ol]?
Answer: Use rate range (agricultural uses) [1]: 125–500 g/ha; Efficacy relative to triadimefon (decay causing fungi): same efficacy as triadimefon; Stability under the conditions of the glue-line treatment [2]: stable

Question: What does the source list for `CCCC1COC(Cn2cncn2)(c2ccc(Cl)cc2Cl)O1` (stereo not shown) [propiconazole]?
Answer: Use rate range (agricultural uses) [1]: 100–150 g/ha; Efficacy against target organism (expressed as weight loss percent in a standard rot trial) (Tyromyces palustris; [3]): 20.5%; Efficacy against target organism (expressed as weight loss percent in a standard rot trial) (Tyromyces palustris; [4]): 7.6%; Efficacy against target organism (expressed as weight loss percent in a standard rot trial) (Tyromyces palustris; [5]): 21.4%; Efficacy against target organism (expressed as weight loss percent in a standard rot trial) (Tyromyces palustris; [6]): 1.8%

Question: With `CC(C)(C)C(O)(CCc1ccc(Cl)cc1)Cn1cncn1` (stereo not shown) [tebuconazole] as the compound, how does the “Use rate range (agricultural uses)” value [1] read?
Answer: 100–250 g/ha

Question: What about the “Efficacy against target organism (expressed as weight loss percent in a standard rot trial)” value (Tyromyces palustris; use rate 80 gram a.i./m^3 in the glueline of plywood from pinus spp) of the same compound?
Answer: 9.2%

Question: And the “Efficacy against target organism (expressed as weight loss percent in a standard rot trial)” value (Tyromyces palustris; use rate 160 gram a.i./m^3 in the glueline of plywood from pinus spp)?
Answer: 20.9%

Question: What about the “Efficacy against target organism (expressed as weight loss percent in a standard rot trial)” value (Tyromyces palustris; use rate 320 gram a.i./m^3 in the glueline of plywood from pinus spp) of the same compound?
Answer: 6.3%

Question: What about the “Efficacy against target organism (expressed as weight loss percent in a standard rot trial)” value (Tyromyces palustris; use rate 640 gram a.i./m^3 in the glueline of plywood from pinus spp) of the same compound?
Answer: 18.5%
